Measured values published in patent EP3546478A1, “NEW PEPTIDE DERIVATIVES OF PLATELET DERIVED GROWTH FACTOR (PDGF), A METHOD FOR THEIR PREPARATION, PHARMACEUTICAL COMPOSITIONS CONTAINING THEM AND APPLICATION OF THESE COMPOSITIONS” (Uniwersytet Gdanski, priority 2018, dated 2019).
Positions of bridges follow the written chain, without caps; N, C: chain ends. Residues, ends and D or L forms follow the SMILES beside them. Chains are numbered I, II in the order given. No end group written: not given here.

Assays:
[1] = tested on: human primary dermal fibroblasts; assay: Chemotaxis through culture inserts, calcein fluorometry; assay type: cell-based; conditions: 1 µg / ml, 24 hours of incubation
Description: The effect of the compound PDGF2 compound at a concentration of 1 µg / ml on the chemotaxis of HaCaT keratinocytes, and the effect of PDGF2 and PDGF3 at a concentration of 1 µg / ml on the chemotaxis of primary fibroblasts, were investigated. Cells were "starved" in serum-free medium for 24 hours before the experiment. They were then seeded in serum-free medium in culture inserts (Grainer bio one, 8 µm) placed in a 24-well plate. Serum-free medium containing PDGF2 or PDGF3 was added to the wells. Controls in the test were: serum free medium and medium containing 10% FBS. After 24 hours of incubation, the cells were stained with calcein. Cells that migrated through the insert membrane were then detached with trypsin and a fluorometric measurement was performed (excitation wavelength 485, emission wavelength 520 nm).

primary skin fibroblasts = assay: XTT proliferation test; assay type: cell-based, human
Description: (§1) The effect of PDGF derivatives (PDGF1, […]1, PDGF2, PGDF3, PDGF2_NE, PDGF2-HTT) on the proliferation of immortalized human 46BR.1N skin fibroblast cells, HaCaT skin keratinocytes (for each peptide 4 experimental cycles for HaCaT and 46BR.1N cells) and primary skin fibroblasts (for each peptide 4 experimental cycles, usingcells isolated from 4 patients) was investigated. Their cytotoxicity to these cells was also checked. The cells were incubated with peptides previously dissolved in double-distilled, sterile water. Proliferation tests (XTT test) were performed at the following concentrations: 0.01, 0.1, 1, 10, 25, 50, 100 and 150 μg / ml. Cytotoxicity tests (LDH) were performed at concentrations of 50, 100 and 150 μg / ml.

HaCaT keratinocytes = assay type: cell-based, human
Description: as §1

46BR.1N fibroblasts = assay type: cell-based, human; conditions: 0.1, 1 and 10 µg / ml after 48h and 72h
Description: as §1

dendritic cells = assay type: cell-based, human
Description: Tests were conducted on human peripheral blood mononuclear cells (PBMC), isolated from "buffy coats" using a ficoll density gradient (histopaque, Sigma). Following two wash steps (in PBS), erythrocyte lysis and cell counting (cell counter, Bio-Rad), the PBMCs were seeded onto a 24-well culture plate at a density of 1 mln cells/1 ml of RPMI 1640 (P/S, 10% FBS)/well. Thecells were then allowed to adapt to the culture conditions for the next 24h. After cell resting, PDGF2 was added to the wells in a final concentration of 1.0 µg/ml, and the cells were incubated for the next 48h under appropriate conditions (37°C, 5% CO2). The untreated cells constituted a negative control, whereas cells stimulated with LPS (1 µg/ml) and PHA (2,5 µg/ml) were a positive control. After incubation, the PBMCs were collected, washed with PBS, counted and prepared for flow cytometry analysis under the following conditions: 10^4 cells/ 100µl were stained with monoclonal, fluorochrome-stained antibodies (anti-CD3, CD4, CD8, CD16, CD56, CD25, CD69, CD71, HLA-DR, CD11c, CD80, CD83). Following 30 min of incubation at RT in the dark, the cells were analyzed using a flow cytometer (LSRFortessa, BD).
An analysis of peptide impact on the activity of immune cells was performed on human PBMCs. These cells were incubated with PDGF2 (1.0 ug/ml) for 48h and the effects of stimulation were evaluated by flow cytometry. […]

[2] = XTT test, 0.01 to 150 µg / ml tested, result in words

Molecule | effect on chemotaxis [1] | increase in proliferation relative to control (primary skin fibroblasts; 1, 10, 25 and 50 µg / ml after 48h and 72h) | inhibition of proliferation (primary skin fibroblasts; [2]) | increase in proliferation relative to control (HaCaT keratinocytes; 0.1, 1, 10 and 25 µg / ml after 48h, 0.1, 1, 10, 25, 50, 100 and 150 µg / ml after 72h) | inhibition of proliferation (HaCaT keratinocytes; [2]) | increase in proliferation relative to control (46BR.1N fibroblasts) | activation of dendritic cells (CD80, CD83) (dendritic cells)
CC[C@H](C)[C@H](NC(=O)[C@H](CC(C)C)NC(=O)[C@@H](N)CCCNC(=N)N)C(=O)N[C@@H](CC(=O)O)C(=O)N[C@@H](CCCNC(=N)N)C(=O)N[C@H](C(=O)N[C@@H](CC(N)=O)C(=O)N[C@@H](C)C(=O)N[C@@H](CC(N)=O)C(=O)N[C@@H](Cc1ccccc1)C(=O)N[C@@H](CC(C)C)C(=O)NCCCC[C@H](NC(=O)[C@H](CCCNC(=N)N)NC(C)=O)C(=O)N[C@H](C(=O)N[C@@H](CCC(=O)O)C(=O)N[C@H](C(=O)N[C@H](C(=O)N[C@@H](CCCNC(=N)N)C(=O)N[C@@H](CCCCN)C(=O)N[C@@H](CCCCN)C(=O)N1CCC[C@H]1C(=O)N[C@H](C(=O)N[C@@H](Cc1ccccc1)C(N)=O)[C@@H](C)CC)C(C)C)[C@@H](C)CC)[C@@H](C)CC)[C@@H](C)O [PDGF3] (I: Ac-RKIEIVRKKPIF-NH2 / II: H-RLIDRTNANFL; amide I:2-II:C) | inhibit the chemotaxis | 10-60% | does not inhibit the proliferation | 20-120% | does not inhibit the proliferation | 20-40% | –
RLIDRTNANFL-NH2 [PDGF2, R^1L^2I^3D^4R^5T^6N^7A^8N^9F^10L^11-NH2] | – | – | – | – | – | – | not activated
